From publication PMC11484510, “Antibacterial activity of structurally diverse natural prenylated isobavachalcone derivatives” (RSC Advances, 2024)
Converted amounts (≈) assume the structure as drawn.

Key:
Type in all cases: cell-based
[1] = tested on: S. aureus; assay: Combinational study (checkerboard microdilution) with standard drugs; conditions: S. aureus
Procedure: The Fractional Inhibitory Concentration Index (FICI) was calculated for each test compound and reference drug to find the combinational effect.
In a 96-well flat bottom plate, the reference drug with 4× MIC was serially diluted horizontally. The test compounds with 4× MIC were serially diluted two-fold outside the plate in 1.5 mL Eppendorf's using Mueller Hinton Broth (MHB). These two serially diluted compounds were combined to create drug-compound combinations in the plate. The reference drug (horizontally) and tested compounds (vertically) alone were serially diluted for MIC determination. 100 μL of the standardized bacterial inoculum with a turbidity equivalent to a 0.5 McFarland standard were diluted 1 : 100 in Mueller Hinton Broth and inoculated in the plates. The plates were incubated for 24 hours at 37 °C. After incubation, 10 μL of freshly prepared Alamar blue (Himedia) was added to each well of the plate, and the plates were further incubated at 37 °C for 30 minutes. After incubation, the plates were visually observed. […] The FICI was calculated using the formula FICI = FIC of compound + FIC of drug. The calculation followed is FICI (CA/(MICA)) + (CB/(MICB)), where CA is the MIC of the compound in combination, CB is the MIC of the drug in combination, and MICA and MICB are the MIC values of individual compounds and drugs, respectively. The range selection followed the interpretation criteria. The FICI range of 0.5 to 4 indicates indifference, ≤ or =0.5 indicates synergy and >4 indicates antagonism.[57]

[2] = tested on: E. coli ATCC 25922; assay: MBC, plating on MHA; conditions: Escherichia coli, ATCC25922; more than 99.9% of the cells killed; read-out: Minimum bactericidal concentration (MBC) E. coli
From the text: (§1) The bacterial strains S. aureus ATCC 29213, MRSA ATCC 15187, E. coli ATCC 25922, and P. aeruginosa ATCC 27853 were obtained from ATCC (American Type Culture Collection). Cation-adjusted Mueller–Hinton broth (MHB; Becton–Dickinson, Cockeysville, MD) was used to determine the minimum inhibitory concentration (MIC). Mueller–Hinton agar (MHA; Becton–Dickinson) was used for minimum bactericidal concentration (MBC) studies. Alamar blue (Himedia) was used to detect the MIC value.
(§2) MBC is defined as the lowest concentration of the compound at which more than 99.9% of the cells were killed compared with the growth control. The minimum compound concentration at which no visible bacterial growth was observed was taken as the Minimum Bactericidal Concentration (MBC).[50]

[3] = tested on: P. aeruginosa ATCC 27853; assay: MBC, plating on MHA; conditions: Pseudomonas aeruginosa, ATCC27853; more than 99.9% of the cells killed; read-out: Minimum bactericidal concentration (MBC) P. aeruginosa
From the text: as §1, §2

[4] = tested on: S. aureus ATCC 29213; assay: MBC, plating on MHA; conditions: Staphylococcus aureus, ATCC29213; more than 99.9% of the cells killed; read-out: Minimum bactericidal concentration (MBC) S. aureus
From the text: as §1, §2

Structure (SMILES): CC(C)=CCc1c(O)ccc2c1O/C(=C\c1ccc(O)cc1)C2=O [IBC-3, (Z)-6-hydroxy-2-(4-hydroxybenzylidene)-7-(3-methylbut-2-en-1-yl)benzofuran-3(2H)-one]
- MIC combination (compound) ([1]; MIC of the compound in combination with ciprofloxacin): 5 µM
- MIC combination (compound) ([1]; MIC of the compound in combination with vancomycin): 5 µM
- MIC ([1]; Staphylococcus aureus, checkerboard, substance alone, read-out: MIC alone): 10 µM
- Outcome of combination ([1]; compound with ciprofloxacin): Indifference (The FICI range of 0.5 to 4 indicates indifference)
- ∑ FICI ([1]; compound with ciprofloxacin): 1
- ∑ FICI ([1]; compound with vancomycin): 0.5
- MBC [2]: 25 µM (≈ 8.06 µg/mL)
- MBC [3]: 100 µM (≈ 32.2 µg/mL)
- MBC [4]: 25 µM (≈ 8.06 µg/mL)
